We go through nine compounds from US20260070945A1, “MACROCYCLIC IMMUNOMODULATORS” (Bristol-Myers Squibb Company, priority 2022, published 2026).

Structures are written as SMILES. *1 amine or outer side, *2 acyl side, *3 side chain or, on linkers, in order; H or OH if unused. Where a SMILES comes first, the peptide text is derived from it. Bridges are numbered along the chain shown (N, C = ends). [ ]: non-standard residue; d: D form. The star is where a group is joined. ξ: configuration not given here. Phe(3-CF3) = N[C@@H](Cc1cccc(C(F)(F)F)c1)C(=O)O; Phe(4-CONH2) = NC(=O)c1ccc(C[C@H](N)C(=O)O)cc1; Phe(4-COOH) = N[C@@H](Cc1ccc(C(=O)O)cc1)C(=O)O; Bip = N[C@@H](Cc1ccc(-c2ccccc2)cc1)C(=O)O; Phe(3-Me) = Cc1cccc(C[C@H](N)C(=O)O)c1; NH(CH2)12COOH = O=C(O)CCCCCCCCCCCCN*; Val(3-OH) = CC(C)(O)[C@H](N)C(=O)O; 3Pal = N[C@@H](Cc1cccnc1)C(=O)O; 4Pal = N[C@@H](Cc1ccncc1)C(=O)O; X1 = O=C(CN1CCN([*:1])CC1)[*:2]; Cha = N[C@@H](CC1CCCCC1)C(=O)O; Cit = NC(=O)NCCC[C@H](N)C(=O)O; Ile(3ξ) = CCC(C)[C@H](N)C(=O)O; Thr(3ξ) = CC(O)[C@H](N)C(=O)O; 12Ado = NCCCCCCCCCCCC(=O)O; Carboxymethyl = O=C(O)C*; NMeA = CN[C@@H](C)C(=O)O; Orn = NCCC[C@H](N)C(=O)O; Aun = NCCCCCCCCCCC(=O)O; Dab = NCC[C@H](N)C(=O)O; AEEA = NCCOCCOCC(=O)O

The target of the first assay is T1, PD-1/PD-L1 interaction (PE-labeled human PD-L1-Ig binding to Jurkat cell line over-expressing human PD-1) (Homo sapiens, UniProt Q15116).
T1 construct: expressed in transfected cells; host or cells: Jurkat
T1 sequence (Q15116 25-288): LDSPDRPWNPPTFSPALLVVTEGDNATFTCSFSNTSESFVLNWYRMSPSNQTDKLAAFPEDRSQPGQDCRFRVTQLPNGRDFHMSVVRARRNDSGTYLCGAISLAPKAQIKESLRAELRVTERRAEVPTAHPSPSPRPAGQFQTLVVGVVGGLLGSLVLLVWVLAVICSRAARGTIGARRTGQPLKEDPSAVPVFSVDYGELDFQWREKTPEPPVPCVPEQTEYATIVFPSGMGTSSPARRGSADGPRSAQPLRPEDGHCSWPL
In words: Jurkat-PD-1 Cell Binding High-Content Screening Assay (CBA). The note with it: Jurkat-hPD-1 cells, PE-labeled PD-L1-Ig 20 nM final; read-out: Jurkat HPD1 PDL1 IC50. The method in brief: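 Read-out: high-content imaging of cell-bound PE fluorescence, with Hoechst 33342 nuclear counterstain after paraformaldehyde fixation. Before labeled ligand (20 nM final, 1 h) was added, compound sat on the cells for 2 h at 37 °C in DMEM/10% FCS.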
As to `CC(C)C[C@H]1NC(=O)[C@H](C)N(C)C(=O)[C@H](Cc2ccc(OCC(=O)O)cc2)NC(=O)[C@H](Cc2ccc(-c3ccccc3)cc2)NC(=O)[C@H](Cc2ccc(OCC(=O)O)cc2)NC(=O)[C@H](Cc2c[nH]c3ccccc23)NC(=O)[C@H](CC(=O)O)NC(=O)[C@H](Cc2ccc(OCC(=O)O)cc2)NC(=O)[C@H]([C@@H](C)O)NC(=O)CSC[C@@H](C(=O)N[C@@H](CCN)C(=O)NCCOCCOCC(=O)NCCCCCCCCCCC(=O)O)NC(=O)[C@H]([C@@H](C)O)NC(=O)[C@H](C(C)C)NC(=O)[C@H](CC2CCCCC2)NC(=O)[C@H](CCC(=O)O)NC1=O` [Example 1398] ({CH2CO}-TY(Carboxymethyl)DWY(Carboxymethyl)[Bip]Y(Carboxymethyl)[NMeA][dL]E[Cha]VTC[Dab][AEEA][Aun]-OH; thioether N-14), the IC50 amounted to 85.5 nM.
On the same count and under the same terms, under `CCC(C)[C@@H]1NC(=O)[C@H](Cc2ccc(-c3ccccc3)cc2)NC(=O)[C@H](C(C)C)NC(=O)[C@H](Cc2c[nH]c3ccccc23)NC(=O)[C@H](CC(=O)O)NC(=O)[C@H](Cc2ccc(OCC(=O)O)cc2)NC(=O)[C@H](C(C)O)NC(=O)CSC[C@@H](C(=O)N[C@@H](CCCN)C(=O)N[C@@H](CO)C(=O)NCCCCCCCCCCCC(=O)O)NC(=O)[C@H](C(C)O)NC(=O)[C@H](C(C)C)NC(=O)[C@H](CC2CCCCC2)NC(=O)[C@H](CCN)NC(=O)[C@@H](CC(C)C)NC(=O)[C@H](C)N(C)C1=O` (stereo partly drawn) [Example 2410] ({CH2CO}-[Thr(3ξ)]Y(Carboxymethyl)DWV[Bip][Ile(3ξ)][NMeA][dL][Dab][Cha]V[Thr(3ξ)]C[Orn]S[12Ado]-OH; thioether N-14) stands 108 nM; under `Cc1cccc(C[C@@H]2NC(=O)[C@H](CC(=O)O)NC(=O)[C@H](Cc3ccc(OCC(=O)O)cc3)NC(=O)[C@H](CCCNC(=N)N)NC(=O)CSC[C@@H](C(=O)N[C@@H](CCN)C(=O)NCCCCCCCCCCC(=O)O)NC(=O)[C@H](C(C)O)NC(=O)[C@H](C(C)C)NC(=O)[C@H](CC3CCCCC3)NC(=O)[C@H](CCN)NC(=O)[C@@H](CC(C)C)NC(=O)[C@H](C)N(C)C(=O)[C@H](Cc3ccc(OCC(=O)O)cc3)NC(=O)[C@H](Cc3ccc(-c4ccccc4)cc3)NC(=O)[C@H](CCCNC(N)=O)NC2=O)c1` (stereo partly drawn) [Example 2349] ({CH2CO}-RY(Carboxymethyl)D[Phe(3-Me)][Cit][Bip]Y(Carboxymethyl)[NMeA][dL][Dab][Cha]V[Thr(3ξ)]C[Dab][Aun]-OH; thioether N-14), 32.5 nM; under `CC(C)C[C@@H]1NC(=O)[C@H](Cc2c[nH]c3ccccc23)NC(=O)[C@H](CC(=O)O)NC(=O)[C@H](Cc2ccncc2)NC(=O)[C@H](Cc2ccc(OCC(=O)O)cc2)NC(=O)CSC[C@@H](C(=O)N2CCN(CC(=O)NCCCCCCCCCCC(=O)O)CC2)NC(=O)[C@H](C(C)O)NC(=O)[C@H](C(C)C)NC(=O)[C@H](CC2CCCCC2)NC(=O)[C@H](CCN)NC(=O)[C@@H](CC(C)C)NC(=O)[C@H](C)N(C)C(=O)[C@H](C(C)C)NC(=O)[C@H](Cc2ccc(-c3ccccc3)cc2)NC1=O` (stereo partly drawn) [Example 1219] ({CH2CO}-Y(Carboxymethyl)[4Pal]DWL[Bip]V[NMeA][dL][Dab][Cha]V[Thr(3ξ)]C[X1][Aun]-OH; thioether N-14), 202 nM.
`Cc1cccc(C[C@@H]2NC(=O)[C@H](CC(=O)O)NC(=O)[C@H](Cc3ccc(OCC(=O)O)cc3)NC(=O)[C@H](Cc3cccnc3)NC(=O)CSC[C@@H](C(=O)N[C@@H](CCN)C(=O)NCCCCCCCCCCC(=O)O)NC(=O)[C@H](CO)NC(=O)[C@H](C(C)C)NC(=O)[C@H](CC3CCCCC3)NC(=O)[C@H](CCN)NC(=O)[C@@H](CC(C)C)NC(=O)[C@H](C)N(C)C(=O)[C@H](Cc3ccc(O)cc3)NC(=O)[C@H](Cc3ccc(-c4ccccc4)cc3)NC(=O)[C@H](Cc3ccc(OCC(=O)O)cc3)NC2=O)c1` [Example 1278] ({CH2CO}-[3Pal]Y(Carboxymethyl)D[Phe(3-Me)]Y(Carboxymethyl)[Bip]Y[NMeA][dL][Dab][Cha]VSC[Dab][Aun]-OH; thioether N-14): the IC50 turned out to be 33.4 nM.
Same read-out and setting: the same measure for `Cc1cccc(C[C@@H]2NC(=O)[C@H](CC(=O)O)NC(=O)[C@H](Cc3ccc(OCC(=O)O)cc3)NC(=O)[C@H](CCCNC(=N)N)NC(=O)CSC[C@@H](C(=O)N[C@@H](CCN)C(=O)NCCCCCCCCCCC(=O)O)NC(=O)[C@H](C(C)O)NC(=O)[C@H](C(C)C)NC(=O)[C@H](CC3CCCCC3)NC(=O)[C@H](CCN)NC(=O)[C@@H](CC(C)C)NC(=O)[C@H](C)N(C)C(=O)[C@H](CCCNC(N)=O)NC(=O)[C@H](Cc3ccc(-c4ccccc4)cc3)NC(=O)[C@H](C(C)C)NC2=O)c1` (stereo partly drawn) [Example 2211] ({CH2CO}-RY(Carboxymethyl)D[Phe(3-Me)]V[Bip][Cit][NMeA][dL][Dab][Cha]V[Thr(3ξ)]C[Dab][Aun]-OH; thioether N-14): 8.5 nM.

Staying with this assay, now noted: PE-labeled PD-L1-Ig 20 nM final, Jurkat-hPD-1 cells; read-out: Jurkat HPD1 PDL1 IC50.
As to `Cc1cccc(C[C@@H]2NC(=O)[C@H](CC(=O)O)NC(=O)[C@H](Cc3ccc(C(=O)O)cc3)NC(=O)[C@H](Cc3ccncc3)NC(=O)CSC[C@@H](C(=O)N[C@@H](CCN)C(=O)NCCOCCOCC(=O)NCCOCCOCC(=O)NCCCCCCCCCCC(=O)O)NC(=O)[C@H](CCC(=O)O)NC(=O)[C@H](C(C)C)NC(=O)[C@H](CC3CCCCC3)NC(=O)[C@H](CCN)NC(=O)[C@@H](CC(C)C)NC(=O)[C@H](C)N(C)C(=O)[C@H](CCC(=O)O)NC(=O)[C@H](Cc3ccc(-c4ccccc4)cc3)NC(=O)[C@H](Cc3ccc(C(N)=O)cc3)NC2=O)c1` [Example 2536] ({CH2CO}-[4Pal][Phe(4-COOH)]D[Phe(3-Me)][Phe(4-CONH2)][Bip]E[NMeA][dL][Dab][Cha]VEC[Dab][AEEA][AEEA][Aun]-OH; thioether N-14), the IC50 was found to be 435 nM.
As to `CC(C)C[C@H]1NC(=O)[C@H](C)N(C)C(=O)[C@H](CCCNC(N)=O)NC(=O)[C@H](Cc2ccc(-c3ccccc3)cc2)NC(=O)[C@H](C(C)C)NC(=O)[C@H](Cc2c[nH]c3ccccc23)NC(=O)[C@H](CC(=O)O)NC(=O)[C@H](Cc2ccc(OCC(=O)O)cc2)NC(=O)[C@H](Cc2ccc(OCC(=O)O)cc2)NC(=O)CSC[C@@H](C(=O)NCCOCCOCC(=O)NCCCCCCCCCCC(=O)O)NC(=O)[C@H](CO)NC(=O)[C@H](C(C)(C)O)NC(=O)[C@H](CC2CCCCC2)NC(=O)[C@H](CCN)NC1=O` [Example 2456] ({CH2CO}-Y(Carboxymethyl)Y(Carboxymethyl)DWV[Bip][Cit][NMeA][dL][Dab][Cha][Val(3-OH)]SC[AEEA][Aun]-OH; thioether N-14), the IC50 is 12.5 nM.
As to `CC(=O)NCCCC[C@@H]1NC(=O)[C@H](C(C)(C)O)NC(=O)[C@H](CC2CCCCC2)NC(=O)[C@H](CCN)NC(=O)[C@@H](CC(C)C)NC(=O)[C@H](C)N(C)C(=O)[C@H](CCC(N)=O)NC(=O)[C@H](Cc2ccc(-c3ccccc3)cc2)NC(=O)[C@H](Cc2ccc(C(=O)O)cc2)NC(=O)[C@H](Cc2cccc(C(F)(F)F)c2)NC(=O)[C@H](CC(=O)O)NC(=O)[C@H](Cc2ccc(OCC(=O)O)cc2)NC(=O)[C@H](Cc2ccc(OCC(=O)O)cc2)NC(=O)CSC[C@@H](C(=O)N[C@@H](CCN)C(=O)NCCOCCOCC(=O)NCCCCCCCCCCCCC(=O)O)NC1=O` [Example 2617] ({CH2CO}-Y(Carboxymethyl)Y(Carboxymethyl)D[Phe(3-CF3)][Phe(4-COOH)][Bip]Q[NMeA][dL][Dab][Cha][Val(3-OH)]K(Ac)C[Dab][AEEA]-{NH(CH2)12COOH}; thioether N-14), the IC50 stood at 20.1 nM.
